Source: patent US10774064B2 (Cadent Therapeutics, Inc., priority 2016, dated 2020)

Target: T1, small-conductance Ca2+-activated K+ channels (SK channels, subtype 2) (Homo sapiens, UniProt Q9H2S1)
T1 construct: expressed in transfected cells; host or cells: HEK293
Assay: whole-cell patch-clamp of ionic current through SK2 channels in HEK293 cells (SC100)
Assay type: cell-based
Settings: whole-cell patch-clamp, HEK293 cells expressing SK2 channels; concentration that increases the basal current by 100%
Summary of the method: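 Whole-cell patch-clamp recording of current in HEK293 cells expressing SK2 channels. SC100 is the compound concentration that increases basal current by 100%.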

SC100 (μM) | SMILES
++ (++ means 200 nM-1000 nM) | COc1cc(NC2CCC(F)(F)CC2)nc(-c2nc(C)cs2)c1 [IN11146-013-P1]
+ (+ means >1 uM) | Cc1csc(-c2nc(NC3CCC(F)(F)CC3)cc(OC3CC3)n2)n1 [IN11146-033-P1, 6-cyclopropoxy-N-(4,4-difluorocyclohexyl)-2-(4-methylthiazol-2-yl)pyrimidin-4-amine]
+++ (+++ means <200 nM) | CSc1cc(NC2CCC(F)(F)CC2)nc(-c2nc(C)cs2)c1 [IN11147-026-P1, N-(4,4-difluorocyclohexyl)-6-(4-methylthiazol-2-yl)-4-(methylthio)pyridin-2-amine]
++ (++ means 200 nM-1000 nM) | COc1cc(NC2CCC(F)(F)CC2)nc(-c2nc(C3CC3)cs2)n1 [IN11147-054-P1, 2-(4-cyclopropylthiazol-2-yl)-N-(4,4-difluorocyclohexyl)-6-methoxypyrimidin-4-amine]
+ (+ means >1 uM) | Cc1cc(NC2CCC(F)(F)CC2)nc(-c2nc(C3CC3)cs2)n1 [IN11147-062-P1, 2-(4-cyclopropylthiazol-2-yl)-N-(4,4-difluorocyclohexyl)-6-methylpyrimidin-4-amine]
++ (++ means 200 nM-1000 nM) | CC(O)c1cc(NC2CCC(F)(F)CC2)nc(-c2nc(C3CC3)cs2)n1 (stereo not drawn) [IN11147-066-P1, 1-(2-(4-cyclopropylthiazol-2-yl)-6-((4,4-difluorocyclohexyl)amino)pyrimidin-4-yl) ethan-1-ol]
+ (+ means >1 uM) | CC(=O)c1cc(NC2CCC(F)(F)CC2)nc(-c2nc(C3CC3)cs2)n1 [IN11147-071-P1, 1-(2-(4-cyclopropylthiazol-2-yl)-6-((4,4-difluorocyclohexyl)amino)pyrimidin-4-yl) ethan-1-one]
++ (++ means 200 nM-1000 nM) | COCc1cc(NC2CCC(F)(F)CC2)nc(-c2nc(C3CC3)cs2)n1 [IN11147-077-P1, 2-(4-cyclopropylthiazol-2-yl)-N-(4,4-difluorocyclohexyl)-6-(methoxymethyl)pyrimidin-4-amine]
++ (++ means 200 nM-1000 nM) | OCc1cc(NC2CCC(F)(F)CC2)nc(-c2nc(C3CC3)cs2)n1 [IN11147-082-P1, (2-(4-cyclopropylthiazol-2-yl)-6-((4,4-difluorocyclohexyl)amino)pyrimidin-4-yl) methanol]
+++ (+++ means <200 nM) | COc1cnc(-c2nc(C3CC3)cs2)nc1NC1CCC(F)(F)CC1 [IN11147-096-P1, 2-(4-cyclopropylthiazol-2-yl)-N-(4,4-difluorocyclohexyl)-5-methoxypyrimidin-4-amine]
++ (++ means 200 nM-1000 nM) | Cc1csc(-c2nc(NC3CCC(F)(F)CC3)cc(C(C)C)n2)n1 [IN11177-064-P1, N-(4,4-difluorocyclohexyl)-6-isopropyl-2-(4-methylthiazol-2-yl)pyrimidin-4-amine]
++ (++ means 200 nM-1000 nM) | Cc1csc(-c2nc(NC3CCC(F)(F)CC3)cc(OCC#N)n2)n1 [IN11196-007-P1, 2-((6-((4,4-difluorocyclohexyl)amino)-2-(4-methylthiazol-2-yl)pyrimidin-4-yl)oxy)acetonitrile]

Further lines, the compound ahead of its results:

SMILES | SC100 (μM)
COc1cc(NC2CCCCC2OC)nc(-c2nc(C)cs2)n1 (stereo not drawn) [IN11140-090-P1, 6-methoxy-N-(2-methoxycyclohexyl)-2-(4-methylthiazol-2-yl)pyrimidin-4-amine] | + (+ means >1 uM)
COc1cc(N[C@@H]2CCCC[C@H]2F)nc(-c2nc(C)cs2)n1 [IN11140-096-P1] | + (+ means >1 uM)
COC(C)c1cc(NC2CCCCC2(F)F)nc(-c2nc(C)cs2)n1 (stereo not drawn) [IN11140-099-P1, N-(2,2-difluorocyclohexyl)-6-(1-methoxyethyl)-2-(4-methylthiazol-2-yl)pyrimidin-4-amine] | + (+ means >1 uM)
Cc1cc(C)n(-c2nc(N[C@@H]3CCCC[C@H]3F)cc(N3CCOCC3)n2)n1 [IN11146-016-P1] | + (+ means >1 uM)
Cc1cc(C)n(-c2cc(CO)cc(NC3CC(F)(F)C3)n2)n1 [IN11146-039-P1, (2-((3,3-difluorocyclobutyl)amino)-6-(3,5-dimethyl-1H-pyrazol-1-yl)pyridin-4-yl) methanol] | + (+ means >1 uM)
Cc1ccn(-c2cc(OC3CCS(=O)(=O)CC3)cc(NC3CCC(F)(F)CC3)n2)n1 [IN11146-089-P1, 4-((2-((4,4-difluorocyclohexyl)amino)-6-(3-methyl-1H-pyrazol-1-yl)pyridin-4-yl)oxy)tetrahydro-2H-thiopyran 1,1-dioxide] | ++ (++ means 200 nM-1000 nM)
Cc1csc(-c2cc([S+](C)[O-])cc(NC3CCC(F)(F)CC3)n2)n1 (stereo not drawn) [IN11147-031-P1, N-(4,4-difluorocyclohexyl)-4-(methylsulfinyl)-6-(4-methylthiazol-2-yl)pyridin-2-amine] | ++ (++ means 200 nM-1000 nM)
Cc1csc(-c2cc(S(C)(=O)=O)cc(NC3CCC(F)(F)CC3)n2)n1 [IN11147-036-P1, N-(4,4-difluorocyclohexyl)-4-(methylsulfonyl)-6-(4-methylthiazol-2-yl)pyridin-2-amine] | +++ (+++ means <200 nM)
FC1(F)CCC(Nc2cc(OCc3cnco3)nc(-n3ccc(C4CC4)n3)n2)CC1 [IN11166-020-P1] | ++ (++ means 200 nM-1000 nM)
FC1(F)CCC(Nc2cc(C3CC3)nc(-n3ccc(C4CC4)n3)n2)CC1 [IN11166-036-P1, 6-cyclopropyl-2-(3-cyclopropyl-1H-pyrazol-1-yl)-N-(4,4-difluorocyclohexyl)pyrimidin-4-amine] | ++ (++ means 200 nM-1000 nM)
CC(=O)N1CC=C(c2cc(NC3CCC(F)(F)CC3)nc(-n3ccc(C4CC4)n3)n2)CC1 [IN11166-038-P1, 1-(4-(2-(3-cyclopropyl-1H-pyrazol-1-yl)-6-((4,4-difluorocyclohexyl)amino)pyrimidin-4-yl)-3,6-dihydropyridin-1(2H)-yl)ethan-1-one] | +++ (+++ means <200 nM)
CC(=O)N1CCC(c2cc(NC3CCC(F)(F)CC3)nc(-n3ccc(C4CC4)n3)n2)CC1 [IN11166-042-P1, 1-(4-(2-(3-cyclopropyl-1H-pyrazol-1-yl)-6-((4,4-difluorocyclohexyl)amino)pyrimidin-4-yl)piperidin-1-yl)ethan-1-one] | ++ (++ means 200 nM-1000 nM)
CC(C)(C)c1ccn(-c2nc(NC3CCC(F)(F)CC3)cc(N3CCOCC3)n2)n1 [IN11177-025-P1, 2-(3-(tert-butyl)-1H-pyrazol-1-yl)-N-(4,4-difluorocyclohexyl)-6-morpholinopyrimidin-4-amine] | + (+ means >1 uM)
Cc1cc(NC2CCC(F)(F)CC2)nc(-n2ccc(C(C)(C)C)n2)n1 [IN11177-029-P1] | ++ (++ means 200 nM-1000 nM)
Cc1ccn(-c2cc(OCc3ncco3)cc(NC3CCC(F)(F)CC3)n2)n1 [IN11177-043-P1] | ++ (++ means 200 nM-1000 nM)
Cc1ccn(-c2nc(NC3CCC(F)(F)CC3)cc(N3CCN(C)C(=O)C3)n2)n1 [IN11177-049-P1] | ++ (++ means 200 nM-1000 nM)
Cc1ccn(-c2cc(OCc3cnco3)cc(NC3CCC(F)(F)CC3)n2)n1 [IN11177-056-P1] | +++ (+++ means <200 nM)
N#Cc1ccn(-c2nc(NC3CCC(F)(F)CC3)cc(N3CCOCC3)n2)n1 [IN11177-068-P1] | + (+ means >1 uM)
